Measured values published in ChEMBL document CHEMBL3045466, “Novel 2H-[1,2,4]thiadiazolo[2,3-a]pyrimidine derivatives bearing chiral S()-2-(4-chlorophenyl)-3-methylbutyric acid moiety: Design, synthesis and herbicidal activity” (2010).

Assays:
Type in all cases: functional
Conditions in all cases: 144 h, read-out: GI
Sorghum bicolor [1] = assay: Herbicidal activity against Sorghum bicolor assessed as inhibition of stalk growth at 100 ppm after 6 days by flat-utensil method relative to control
Sorghum bicolor [2] = assay: Herbicidal activity against Sorghum bicolor assessed as inhibition of root growth at 50 ppm after 6 days by flat-utensil method relative to control
Digitaria sanguinalis [3] = assay: Herbicidal activity against Digitaria sanguinalis (hairy crabgrass) assessed as inhibition of stalk growth at 100 ppm after 6 days by flat-utensil method relative to control
Chenopodium ficifolium [4] = assay: Herbicidal activity against Chenopodium ficifolium assessed as inhibition of stalk growth at 100 ppm after 6 days by flat-utensil method relative to control
Sorghum bicolor [5] = assay: Herbicidal activity against Sorghum bicolor assessed as inhibition of root growth at 100 ppm after 6 days by flat-utensil method relative to control
Echinochloa crus-galli [6] = assay: Herbicidal activity against Echinochloa crus-galli (barnyard grass) assessed as inhibition of stalk growth at 50 ppm after 6 days by flat-utensil method relative to control
Chenopodium ficifolium [7] = assay: Herbicidal activity against Chenopodium ficifolium assessed as inhibition of stalk growth at 50 ppm after 6 days by flat-utensil method relative to control
Echinochloa crus-galli [8] = assay: Herbicidal activity against Echinochloa crus-galli (barnyard grass) assessed as inhibition of root growth at 50 ppm after 6 days by flat-utensil method relative to control
Chenopodium ficifolium [9] = assay: Herbicidal activity against Chenopodium ficifolium assessed as inhibition of root growth at 50 ppm after 6 days by flat-utensil method relative to control
Amaranthus retroflexus [10] = assay: Herbicidal activity against Amaranthus retroflexus assessed as inhibition of stalk growth at 100 ppm after 6 days by flat-utensil method relative to control
Amaranthus retroflexus [11] = assay: Herbicidal activity against Amaranthus retroflexus assessed as inhibition of root growth at 50 ppm after 6 days by flat-utensil method relative to control
Sorghum bicolor [12] = assay: Herbicidal activity against Sorghum bicolor assessed as inhibition of stalk growth at 50 ppm after 6 days by flat-utensil method relative to control
Digitaria sanguinalis [13] = assay: Herbicidal activity against Digitaria sanguinalis (hairy crabgrass) assessed as inhibition of stalk growth at 50 ppm after 6 days by flat-utensil method relative to control
Digitaria sanguinalis [14] = assay: Herbicidal activity against Digitaria sanguinalis (hairy crabgrass) assessed as inhibition of root growth at 50 ppm after 6 days by flat-utensil method relative to control
Amaranthus retroflexus [15] = assay: Herbicidal activity against Amaranthus retroflexus assessed as inhibition of root growth at 100 ppm after 6 days by flat-utensil method relative to control
Echinochloa crus-galli [16] = assay: Herbicidal activity against Echinochloa crus-galli (barnyard grass) assessed as inhibition of stalk growth at 100 ppm after 6 days by flat-utensil method relative to control
Chenopodium ficifolium [17] = assay: Herbicidal activity against Chenopodium ficifolium assessed as inhibition of root growth at 100 ppm after 6 days by flat-utensil method relative to control
Amaranthus retroflexus [18] = assay: Herbicidal activity against Amaranthus retroflexus assessed as inhibition of stalk growth at 50 ppm after 6 days by flat-utensil method relative to control
Echinochloa crus-galli [19] = assay: Herbicidal activity against Echinochloa crus-galli (barnyard grass) assessed as inhibition of root growth at 100 ppm after 6 days by flat-utensil method relative to control
Digitaria sanguinalis [20] = assay: Herbicidal activity against Digitaria sanguinalis (hairy crabgrass) assessed as inhibition of root growth at 100 ppm after 6 days by flat-utensil method relative to control

Row | SMILES | inhibition of growth at 100 ppm (Sorghum bicolor [1]) [%] | inhibition of growth at 50 ppm (Sorghum bicolor [2]) [%] | inhibition of growth at 100 ppm (Digitaria sanguinalis [3]) [%] | inhibition of growth at 100 ppm (Chenopodium ficifolium [4]) [%] | inhibition of growth at 100 ppm (Sorghum bicolor [5]) [%] | inhibition of growth at 50 ppm (Echinochloa crus-galli [6]) [%] | inhibition of growth at 50 ppm (Chenopodium ficifolium [7]) [%] | inhibition of growth at 50 ppm (Echinochloa crus-galli [8]) [%] | inhibition of growth at 50 ppm (Chenopodium ficifolium [9]) [%] | inhibition of growth at 100 ppm (Amaranthus retroflexus [10]) [%] | inhibition of growth at 50 ppm (Amaranthus retroflexus [11]) [%] | inhibition of growth at 50 ppm (Sorghum bicolor [12]) [%] | inhibition of growth at 50 ppm (Digitaria sanguinalis [13]) [%] | inhibition of growth at 50 ppm (Digitaria sanguinalis [14]) [%] | inhibition of growth at 100 ppm (Amaranthus retroflexus [15]) [%] | inhibition of growth at 100 ppm (Echinochloa crus-galli [16]) [%] | inhibition of growth at 100 ppm (Chenopodium ficifolium [17]) [%] | inhibition of growth at 50 ppm (Amaranthus retroflexus [18]) [%] | inhibition of growth at 100 ppm (Echinochloa crus-galli [19]) [%] | inhibition of growth at 100 ppm (Digitaria sanguinalis [20]) [%]
1 | Cc1cc(C)n2s/c(=N\C(=O)[C@H](c3ccc(Cl)cc3)C(C)C)nc2n1 | 25 | 20 | 90 | 80 | 20 | 50 | 50 | 30 | 50 | 95 | 50 | 20 | 55 | 45 | 100 | 80 | 85 | 50 | 30 | 80
2 | COc1cc(OC)n2s/c(=N\C(=O)[C@H](c3ccc(Cl)cc3)C(C)C)nc2n1 | 40 | 20 | 90 | 90 | 50 | 40 | 90 | 20 | 90 | 80 | 40 | 25 | 50 | 40 | 95 | 70 | 90 | 45 | 20 | 80
3 | CC(C)[C@H](C(=O)/N=c1/nc2nc(Cl)cc(Cl)n2s1)c1ccc(Cl)cc1 | 30 | 20 | 10 | 40 | 20 | 40 | 20 | 30 | 30 | 75 | 45 | 20 | 0 | 0 | 80 | 75 | 60 | 50 | 50 | 0
4 | COc1cc(Cl)n2s/c(=N\C(=O)[C@H](c3ccc(Cl)cc3)C(C)C)nc2n1 | 80 | 60 | 10 | 20 | 80 | 60 | 10 | 80 | 10 | 20 | 0 | 60 | 0 | 0 | 30 | 70 | 10 | 0 | 100 | 10
5 | Cc1cc(O)n2s/c(=N\C(=O)[C@H](c3ccc(Cl)cc3)C(C)C)nc2n1 | 40 | 30 | 10 | 100 | 30 | 30 | 70 | 70 | 50 | 95 | 50 | 35 | 10 | 20 | 90 | 40 | 80 | 60 | 80 | 25
6 | Cc1cc(Cl)n2s/c(=N\C(=O)[C@H](c3ccc(Cl)cc3)C(C)C)nc2n1 | 20 | 20 | 30 | 85 | 40 | 10 | 80 | 70 | 80 | 100 | 85 | 10 | 30 | 30 | 100 | 30 | 90 | 90 | 90 | 40
7 | Cc1cc(C)n2s/c(=N\C(=O)C(c3ccc(Cl)cc3)C(C)C)nc2n1 (racemic) | 10 | 0 | 60 | 70 | 0 | 20 | 40 | 0 | 35 | 20 | 20 | 0 | 40 | 30 | 50 | 25 | 60 | 10 | 10 | 70
8 | COc1cc(OC)n2s/c(=N\C(=O)C(c3ccc(Cl)cc3)C(C)C)nc2n1 (racemic) | 20 | 0 | 60 | 50 | 0 | 30 | 20 | 0 | 20 | 30 | 20 | 10 | 35 | 30 | 45 | 30 | 50 | 30 | 0 | 60
